Patent EP0390762A1, “New bronchospasmolytic compounds and process for their preparation” (priority 1989, dated 1990)

How the values were obtained:
[1] = test system: dyspnotic breathing in histamine; assay: Duration of bronchodilating activity in conscious guinea pigs challenged with aerosolized histamine after tracheal instillation or inhalation; type: in vivo; details: for delay (in minutes) in the appearance of dyspnotic breathing in histamine 0.5 h after the administration / delay (in minutes) in the appearance of dyspnotic breathing in histamine 6 h after the administration: given intratracheally; for initial potency compared with salmeterol / initial potency compared with terbutaline: conscious guinea pigs, histamine challenge
Method: Concious guinea pigs were used in the study. The compounds according to Examples 1 and 2, salmeterol and terbutaline, were given by inhalation or by tracheal instillation whereafter the animals were challenged in a histamine mist after different time intervals.
The guinea pigs were placed in plastic boxes and the test compounds delivered by continuous flow nebulization during 15 minutes.
The animals were lightly anaesthetized by inhalation of Efrane. The test compounds were instilled by use of a thin cannula to the tracheal bifurcation. Controlled animals were instilled with saline.
After the administrations, according to one of the mentioned routes, the animals were placed in transparent plastic cages and challenged with aerosolized histamine. The mist was generated in a nebulizer from a solution containing 0.5-1.0x10⁻³ mol/l of histamine in 3% glycerol. This concentration produced a defined dyspnotic breathing, appearing in control animals within 2-3 minutes. This phase was usally indicated by observation, sometimes also a "blinded trial" or recorded by use of a strain-gauge belt (see 0.A.T. Olsson in Acta Allergologica 26, 438, 1971). An increasing amount of spasmolytic drug gives then rise to a dose-dependent prolongation of the ability of the animals to resist this histamine spasm. As soon as a dyspnotic breathing was established the guinea pigs were removed from the histamine milieu since the same animals have to be exposed to histamine not only after 30 minutes but also at 3, 6 and 9 hours after drug administration.
In some of the experiments the animals were challenged with methacholine instead of histamine to exclude the eventuality of an antihistaminic effect of the drugs tested.
The amounts instilled produce about equieffective protection (6 to 7 minutes) against a histamine provocation 30 minutes after the administration of the test compound. The degree of protection 6 hours after the instillation of the test compound indicates the duration of the bronchospasmolytic activity.

[2] = test system: histamine-elicited bronchospasm; assay: Bronchospasmolytic effect (reduction of intratracheal pressure, ITP) in anaesthetized guinea pigs; type: in vivo; details: for dose-related inhibition of the histamine-elicited bronchospasm: after injection as well as after inhalation; for reduction of ITP: 3 minutes before histamine infusion
Method: (§1) Guinea pigs of either sex were used in the study. The anaesthesia was produced by intravenous pentobarbital, The trachea was cannulated and the animals articificially ventilated by a constant volume respiratory. The intratracheal pressure (ITP) was measured by a pressure transducer. An increase in ITP, above the basic pressure level, indicating a respiratory spasm, was elicited by histamine infused in a jugular vein during 20 sec. every 7 minutes and in amounts producing a peak-ITP in the range 4-6 kPa. To trace cardiovascular effects from used drugs the blood pressure was recorded from a carotide artery via a pressure transducer. The pulse wave, indicating the rate, was triggering a tachograph recording the heart frequency.
(§2) The test compounds were injected 3 minutes before a histamine infusion and the decrease in percent of the intratracheal pressure (ITP) was taken as a measure of the bronchospasmolytic activity. The influence on heart-rate was evaluated after cumultative injections; a new injection was given when the preceding one had produced a steady state in the rate.
(§3) The test compounds were nebulized and the mist produced was led to the animal through the respirator and tracheal cannula. Inhalation continued for 15 mintues for each concentration of the test compounds. The bronchodilating effect […] was calculated as percent reduction in ITP. The effect on heart-rate was determined after a cumultative increase in the concentrations of the nebulized solutions. Effect measurements were made at steady state, and three different concentrations were used.

heart-rate = assay: Heart-stimulating effect (heart-rate) in anaesthetized guinea pigs; type: in vivo
Method: as §1, §2, §3

[3] = inhalation therapy; cited from earlier work

COc1ccc(CNc2cc(C(O)CNC(C)Cc3ccc4c(c3)OCO4)ccc2O)cc1 [(R,R+S,R)]
delay (in minutes) in the appearance of dyspnotic breathing in histamine 0.5 h after the administration ([1]; 1x10⁻⁷ mol/kg): 7 min
delay (in minutes) in the appearance of dyspnotic breathing in histamine 6 h after the administration ([1]; 1x10⁻⁷ mol/kg): 3 min

CC(C)(C)NCC(O)c1cc(O)cc(O)c1 (centres unmarked) [Terbutaline, terbutaline]
delay (in minutes) in the appearance of dyspnotic breathing in histamine 0.5 h after the administration ([1]; 1x10⁻⁷ mol/kg): 7 min
delay (in minutes) in the appearance of dyspnotic breathing in histamine 6 h after the administration ([1]; 1x10⁻⁷ mol/kg): 2 min
dose-related inhibition of the histamine-elicited bronchospasm [2]: inhibition of the histamine-elicited bronchospasm
reduction of ITP ([2]; injection of 1x10⁻⁸ mol/kg): about 50 per cent
effect on heart-rate relative to salmeterol and the compounds of the invention (heart-rate; guinea pig, in vivo): lies in between
increase of the heart-rate (heart-rate; guinea pig, in vivo, iv): about 30 beats/min
duration of activity [3]: 4 to 6 h

COc1ccc(CNc2cc([C@@H](O)CN[C@@H](C)Cc3ccc4c(c3)OCO4)ccc2O)cc1 [(R,S), 1-(R)-(4-hydroxy-3-(p-methoxybenzylamino)phenyl)-2-[(1(S)-methyl-2-(3,4-methylenedioxyphenyl)ethyl)amino]ethanol]
initial potency compared with salmeterol [1]: approximately ten times less than for salmeterol
initial potency compared with terbutaline [1]: about the same as for terbutaline
delay (in minutes) in the appearance of dyspnotic breathing in histamine 0.5 h after the administration ([1]; 5x10⁻⁹ mol/kg): 6 min
delay (in minutes) in the appearance of dyspnotic breathing in histamine 6 h after the administration ([1]; 5x10⁻⁹ mol/kg): 5 min

CC(Cc1ccc(O)cc1)NCC(O)c1cc(O)cc(O)c1 (centres unmarked) [fenoterol]
duration of activity [3]: 4 to 6 h

Cc1ccc(C(=O)Oc2ccc(C(O)CNC(C)(C)C)cc2OC(=O)c2ccc(C)cc2)cc1 (centres unmarked) [bitolterol]
duration of activity [3]: 4 to 6 h

OCc1cc(C(O)CNCCCCCCOCCCCc2ccccc2)ccc1O (centres unmarked) [salmeterol]
duration of activity compared with terbutaline ([1]; calculated from an equipotent level): prolonged
dose-related inhibition of the histamine-elicited bronchospasm [2]: inhibition of the histamine-elicited bronchospasm
reduction of ITP ([2]; injection of 5x10⁻¹⁰ mol/kg): about 50 per cent
potency compared with the other two drugs (compound of Example 2, terbutaline) ([2]; when inhaled): about five times
potency compared with the other two drugs (compound of Example 2, terbutaline) ([2]; when injected): at least ten times higher
increase of the heart-rate (heart-rate; guinea pig, in vivo): 15 beats/min
increase of the heart-rate (heart-rate; guinea pig, in vivo, iv): about 30 beats/min

COc1ccc(CNc2cc([C@@H](O)CN[C@@H](C)Cc3ccc4c(c3)OCO4)ccc2O)cc1 (racemic) [(R,S+S,R)]
initial potency compared with salmeterol [1]: approximately ten times less than for salmeterol
initial potency compared with terbutaline [1]: about the same as for terbutaline
delay (in minutes) in the appearance of dyspnotic breathing in histamine 0.5 h after the administration ([1]; 1x10⁻⁸ mol/kg): 7 min
delay (in minutes) in the appearance of dyspnotic breathing in histamine 6 h after the administration ([1]; 1x10⁻⁸ mol/kg): 6 min
dose-related inhibition of the histamine-elicited bronchospasm [2]: inhibition of the histamine-elicited bronchospasm
reduction of ITP ([2]; injection of 5x10⁻⁹ mol/kg): about 50 per cent
effect on heart rate compared with salmeterol (heart-rate; after inhalation): more reduced effect on heart rate
relationship between the effect on the respiratory system and heart, compared with salmeterol (heart-rate; when the drugs are injected): the same

COc1ccc(CNc2cc(C(O)CNC(C)Cc3ccc4c(c3)OCO4)ccc2O)cc1 [(R,S+S,S)]
delay (in minutes) in the appearance of dyspnotic breathing in histamine 0.5 h after the administration ([1]; 1x10⁻⁸ mol/kg): 6 min
delay (in minutes) in the appearance of dyspnotic breathing in histamine 6 h after the administration ([1]; 1x10⁻⁸ mol/kg): 5 min

CC(C)(C)NCC(O)c1ccc(O)c(CO)c1 (centres unmarked) [salbutamol]
duration of activity [3]: 4 to 6 h

COc1ccc(CNc2cc([C@@H](O)CN[C@H](C)Cc3ccc4c(c3)OCO4)ccc2O)cc1 [(R,R)]
delay (in minutes) in the appearance of dyspnotic breathing in histamine 0.5 h after the administration ([1]; 5x10⁻⁸ mol/kg): 7 min
delay (in minutes) in the appearance of dyspnotic breathing in histamine 6 h after the administration ([1]; 5x10⁻⁸ mol/kg): 3 min
